Assays:
Assay type in all cases: in vivo
[1] = system: lambsquarters (Chenopodium album); assay: Test B postemergence; conditions: Rate 125 g/ha, scale 0 to 100, 0 no effect, 100 complete control
How it was run: (§1)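 Preemergence: seeds planted and treated with test chemicals in non-phytotoxic solvent with surfactant; postemergence on plants 2–18 cm (1- to 4-leaf stage). Kept in greenhouse 13–15 days, then visually rated against controls on a 0 (no effect) to 100 (complete control) scale.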

[2] = system: cocklebur (Xanthium strumarium); assay: Test B postemergence
How it was run: as §1

[3] = system: velvetleaf (Abutilon theophrasti); assay: Test B postemergence; conditions: Rate 125 g/ha, scale 0 to 100, 0 no effect, 100 complete control
How it was run: as §1

wild oat (Avena fatua) = assay: Test B postemergence; conditions: Rate 125 g/ha, scale 0 to 100, 0 no effect, 100 complete control
How it was run: as §1

[4] = system: barnyardgrass (Echinochloa crus-galli); assay: Test B postemergence
How it was run: as §1

[5] = system: wheat (Triticum aestivum); assay: Test B postemergence; conditions: Rate 125 g/ha, scale 0 to 100, 0 no effect, 100 complete control
How it was run: as §1

[6] = system: giant foxtail (Setaria faberii); assay: Test B postemergence; conditions: Rate 125 g/ha, scale 0 to 100, 0 no effect, 100 complete control
How it was run: as §1

[7] = system: morning glory (Ipomoea hederacea); assay: Test B postemergence; conditions: Rate 125 g/ha, scale 0 to 100, 0 no effect, 100 complete control
How it was run: as §1

[8] = system: pigweed (Amaranthus retroflexus); assay: Test B postemergence; conditions: Rate 125 g/ha, scale 0 to 100, 0 no effect, 100 complete control
How it was run: as §1

[9] = system: crabgrass (Digitaria sanguinalis); assay: Test B postemergence; conditions: Rate 125 g/ha, scale 0 to 100, 0 no effect, 100 complete control
How it was run: as §1

[10] = system: Surinam grass (Brachiaria decumbens); assay: Test B postemergence
How it was run: as §1

corn (Zea mays) = assay: Test B postemergence
How it was run: as §1

[11] = system: blackgrass (Alopecurus myosuroides); assay: Test B postemergence
How it was run: as §1

Sunflower [12] = assay: Test C preemergence; conditions: Rate 250 g/ha, scale 0 to 100, 0 no effect, 100 complete control
[13] = system: smallflower flatsedge (Cyperus difformis); assay: Test C flooded paddy test; conditions: for Flatsedge plant response rating: Flooded Paddy, scale 0 to 100, 0 no effect, 100 complete control; for Plant response rating, Flatsedge: scale 0 to 100 (0 no effect, 100 complete control)
How it was run: (§2)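 Visual injury score, 0 (no effect) to 100 (complete control), relative to controls. Paddy plants treated at 2-leaf stage; greenhouse hold 12–14 d before rating.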

[14] = system: barnyardgrass (Echinochloa crus-galli); assay: Test C flooded paddy test; conditions: for Barnyardgrass plant response rating: Flooded Paddy, scale 0 to 100, 0 no effect, 100 complete control; for Plant response rating, Barnyardgrass: scale 0 to 100 (0 no effect, 100 complete control)
How it was run: as §2

rice (Oryza saliva) = assay: Test C flooded paddy test; conditions: for Rice plant response rating: Flooded Paddy, Rate 500 g/ha, scale 0 to 100, 0 no effect, 100 complete control; for Plant response rating, Rice: scale 0 to 100 (0 no effect, 100 complete control)
How it was run: as §2

[15] = system: duck salad (Heteranthera limosa); assay: Test C flooded paddy test; conditions: for Ducksalad plant response rating: Flooded Paddy, scale 0 to 100, 0 no effect, 100 complete control; for Plant response rating, Ducksalad: scale 0 to 100 (0 no effect, 100 complete control)
How it was run: as §2

[16] = system: common ragweed (Ambrosia elatior); assay: Test C preemergence; conditions: for Plant response rating (0 to 100), Ragweed, Common: Rate 500 g/ha, visual evaluation after 12 to 14 days
How it was run: (§3)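 Visual injury scores of 0–100, with 100 meaning complete control, were given relative to controls after 12–14 days in the greenhouse. Treatments used a surfactant-containing non-phytotoxic solvent formulation, sprayed on seeded pots preemergence or on 1–4-leaf plants of 2–18 cm postemergence.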

Sunflower [17] = assay: Test C preemergence; conditions: Rate 125 g/ha; scale 0 to 100, 0 no effect, 100 complete control
[18] = system: Surinam grass (Brachiaria decumbens); assay: Test C preemergence; conditions: for Plant response rating (0 to 100), Surinam grass: Rate 500 g/ha, visual evaluation after 12 to 14 days
How it was run: as §3

Sunflower [19] = assay: Test C preemergence; conditions: Rate 62 g/ha, scale 0 to 100
[20] = Rate 125 g/ha, scale 0 to 100, 0 no effect, 100 complete control
[21] = Rate 500 g/ha, scale 0 to 100, 0 is no effect, 100 is complete control, 13 to 15 days
[22] = flooded paddy test, Rate 125 g/ha
[23] = flooded paddy test, Rate 250 g/ha
[24] = flooded paddy test, Rate 62 g/ha, visually evaluated after 12 to 14 days, 0 = no effect, 100 = complete control
[25] = preemergence, Rate 62 g/ha, scale 0 to 100
[26] = preemergence, Rate 250 g/ha, scale 0 to 100, 0 no effect, 100 complete control
[27] = flooded paddy test, Rate 62 g/ha

SMILES: CCCC(C)c1ccn(C2OCN(c3cccc(OC(F)F)c3)C2=O)n1 (centres unmarked) [Compound 132]
- Plant response rating, Lambsquarters [1]: 70
- Plant response rating, Cocklebur [2, 20]: 0
- Plant response rating, Cocklebur [2, 21]: 0
- Plant response rating, Velvetleaf [3]: 0
- Plant response rating, Wild Oat (wild oat (Avena fatua)): 0
- Plant response rating, Barnyardgrass [4, 20]: 0
- Plant response rating, Barnyardgrass [4, 21]: 30
- Plant response rating, Wheat [5]: 0
- Plant response rating, Foxtail, Giant [6]: 0
- Plant response rating, Morningglory [7]: 0
- Plant response rating, Pigweed [8]: 0
- Plant response rating, Crabgrass [9]: 0
- Plant response rating, Surinam grass [10, 20]: 0
- Plant response rating, Surinam grass [10, 21]: 0
- Plant response rating, Corn (corn (Zea mays); [20]): 0
- Plant response rating, Corn (corn (Zea mays); [21]): 0
- Plant response rating, Blackgrass [11, 20]: 0
- Plant response rating, Blackgrass [11, 21]: 0
- Plant response rating, Sunflower (Sunflower [12]): 20
- Flatsedge plant response rating ([13]; Rate 500 g/ha): 90
- Plant response rating, Flatsedge [13, 22]: 90
- Plant response rating, Flatsedge [13, 23]: 90
- Plant response rating (scale 0 to 100), Flatsedge [13, 24]: 90
- Barnyardgrass plant response rating ([14]; Rate 500 g/ha): 100
- Plant response rating, Barnyardgrass [14, 22]: 70
- Plant response rating, Barnyardgrass [14, 23]: 100
- Plant response rating (scale 0 to 100), Barnyardgrass [14, 24]: 40
- Rice plant response rating (rice (Oryza saliva)): 90
- Plant response rating, Rice (rice (Oryza saliva); [22]): 20
- Plant response rating, Rice (rice (Oryza saliva); [23]): 20
- Plant response rating (scale 0 to 100), Rice (rice (Oryza saliva); [24]): 0
- Ducksalad plant response rating ([15]; Rate 500 g/ha): 80
- Plant response rating, Ducksalad [15, 22]: 20
- Plant response rating, Ducksalad [15, 23]: 40
- Plant response rating (scale 0 to 100), Ducksalad [15, 24]: 0
- Plant response rating, Ragweed, Common [16, 20]: 0
- Plant response rating, Ragweed, Common [16, 25]: 0
- Plant response rating (0 to 100), Ragweed, Common ([16]; preemergence): 0
- Plant response rating, Ragweed, Common [16, 26]: 0
- Plant response rating, Sunflower (Sunflower [17]): 20
- Plant response rating, Surinam grass [18, 20]: 100
- Plant response rating, Surinam grass [18, 25]: 90
- Plant response rating (0 to 100), Surinam grass ([18]; preemergence): 100
- Plant response rating, Surinam grass [18, 26]: 100
- Plant response rating, Sunflower (Sunflower [19]): 0

SMILES: COc1cc(N2CCC(n3ccc(C(C)(C)C)n3)C2=O)ccc1Cl (centres unmarked) [Compound 117]
- Plant response rating, Lambsquarters [1]: 90
- Plant response rating, Cocklebur [2, 20]: 90
- Plant response rating, Cocklebur [2, 21]: 100
- Plant response rating, Velvetleaf [3]: 70
- Plant response rating, Wild Oat (wild oat (Avena fatua)): 40
- Plant response rating, Barnyardgrass [4, 20]: 40
- Plant response rating, Barnyardgrass [4, 21]: 90
- Plant response rating, Wheat [5]: 30
- Plant response rating, Foxtail, Giant [6]: 0
- Plant response rating, Morningglory [7]: 70
- Plant response rating, Pigweed [8]: 80
- Plant response rating, Crabgrass [9]: 30
- Plant response rating, Surinam grass [10, 20]: 30
- Plant response rating, Surinam grass [10, 21]: 40
- Plant response rating, Corn (corn (Zea mays); [20]): 0
- Plant response rating, Corn (corn (Zea mays); [21]): 0
- Plant response rating, Blackgrass [11, 20]: 0
- Plant response rating, Blackgrass [11, 21]: 0
- Plant response rating, Sunflower (Sunflower [12]): 60
- Flatsedge plant response rating ([13]; Rate 250 g/ha): 100
- Flatsedge plant response rating ([13]; Rate 500 g/ha): 100
- Plant response rating, Flatsedge [13, 27]: 100
- Plant response rating, Flatsedge [13, 22]: 100
- Barnyardgrass plant response rating ([14]; Rate 250 g/ha): 90
- Barnyardgrass plant response rating ([14]; Rate 500 g/ha): 90
- Plant response rating, Barnyardgrass [14, 27]: 40
- Plant response rating, Barnyardgrass [14, 22]: 80
- Rice plant response rating (rice (Oryza saliva)): 30
- Plant response rating, Rice (rice (Oryza saliva); [27]): 20
- Plant response rating, Rice (rice (Oryza saliva); [22]): 30
- Ducksalad plant response rating ([15]; Rate 250 g/ha): 100
- Ducksalad plant response rating ([15]; Rate 500 g/ha): 100
- Plant response rating, Ducksalad [15, 27]: 0
- Plant response rating, Ducksalad [15, 22]: 100
- Plant response rating, Ragweed, Common [16, 20]: 100
- Plant response rating, Ragweed, Common [16, 25]: 100
- Plant response rating (0 to 100), Ragweed, Common ([16]; preemergence): 100
- Plant response rating, Ragweed, Common [16, 26]: 100
- Plant response rating, Sunflower (Sunflower [17]): 40
- Plant response rating, Surinam grass [18, 20]: 10
- Plant response rating, Surinam grass [18, 25]: 10
- Plant response rating (0 to 100), Surinam grass ([18]; preemergence): 100
- Plant response rating, Surinam grass [18, 26]: 75
- Plant response rating, Sunflower (Sunflower [19]): 35

— patent US7138361B2, “Herbicidal heterocycles” (E. I. du Pont de Nemours and Company, priority 2000, dated 2006)
